According to PMC3901259, “Characterisation of the Metabolites of 1,8-Cineole Transferred into Human Milk: Concentrations and Ratio of Enantiomers” (Metabolites, 2013):

What was measured:
[1] = Quantification of 1,8-cineole metabolites in human milk (SAFE, GC-MS, internal standard and matrix calibration) after oral intake of 100 mg 1,8-cineole; type: in vivo; settings: for Absolute concentration in human milk: single determination
Source text: Human milk samples were provided voluntarily by breastfeeding mothers after intake of the non-prescription pharmaceutical Soledum® (Klosterfrau Healthcare Group, Cologne, Germany). Before the beginning of the study, the participants were informed verbally, as well as in written form, about the study procedure and purpose and they were told that withdrawing from the study was possible at any time without giving any reason. All volunteers gave written consent to the analysis of their milk samples and anonymous publication of the resulting data. The Ethical Committee of the Medical Faculty, University Erlangen-Nuremberg, approved the experimental procedures. Each participant was handed a copy of the Soldeum® package instructions and was advised to read it before capsule intake. They were also advised to withdraw from the study if any negative reactions such as medication allergies or interactions with other drugs they were taking were to be expected. Additionally, the volunteers were informed verbally about potential effects of the pharmaceutical preparation on breastfeeding, i.e. the risk of an altered milk flavour and rejection of the milk by the nursling. Accordingly, if this would happen, the mothers were recommended to feed their babies with stored human milk or formula milk products.
The milk donors were between the ages of 29 and 40 years (mean 34 years). During their participation in the study, their breast milk production had to be normal and in excess of their infants' needs, with no breast infections and no overall medical complaints present. Five participants were primiparous, three were multiparous and the breast milk samples were from 19 weeks to 19 months postpartum. For sampling, either electrical or mechanical breast pumps or manual expression techniques were applied, resulting in sample volumes between 10 and 100 mL. The samples were immediately subjected to sample preparation after a maximum storage time of five hours at 7 °C or were stored in a freezer at −20 °C for up to five days.
The participating volunteers were asked to ingest one Soledum® capsule, containing 100 mg 1,8-cineole, and to wait until they themselves or another person began to notice the eucalyptus-like odour on their breath. […] The donors were instructed to keep notes on the dates of capsule intake, first eucalyptus-like odour on their breath and exact sampling time. Unfortunately it was difficult for some mothers to detect the smell on their breath so they expressed the samples after some time without having noticed the smell, or reported having been unsure about the smell. […] Some of the donors repeated the whole experiment and some expressed more than one sample after the capsule intake, resulting in 14 samples in total, from 8 different mothers.
Extracts containing the volatile fraction of the human milk samples were prepared by Solvent Assisted Flavour Evaporation (SAFE) after addition of deuterated 1,8-cineole as internal standard (solution in dichloromethane), followed by 10 min of stirring, then another addition of dichloromethane (50% v/v), and 30 min of stirring. The resulting stable phase was distilled in the SAFE-apparatus at 50 °C and approximately 1x10^−4 mbar. The volatile fraction of the samples was frozen with liquid nitrogen. After thawing, it consisted of two phases, formed by the dichloromethane and by the water out of the milk. The water phase was extracted three times with dichloromethane, and the solvent phases were combined and dried over anhydrous Na2SO4. Finally the sample extracts were concentrated by microdistillation according to Bemelmans at 50 °C to a total volume of 50 to 200 μL.
For GC-MS analyses, an Agilent MSD quadrupole system (GC 7890A with MSD 5975C, Agilent Technologies, Waldbronn, Germany) coupled with a CIS 4C (cooled injection system) and an MPS 2 auto-sampler (Gerstel GmbH & Co. KG, Duisburg, Germany) were used. […]

[2] = set-up: method as in PMID 20425757; settings: one volunteer, sage tea, overall intake 1.02 mg 1,8-cineole; cited from earlier work

CC1(C)OC2(C)CCC1CC2O (stereo not drawn) [a2-hydroxy-1,8-cineole, α2-hydroxy-1,8-cineole]
Concentration range in human milk (abstract/conclusions) ([1]; after oral 100 mg 1,8-cineole, rounded summary): 100 to 250 µg/kg | Share of the metabolites on average ([1]; human milk, roughly estimated): about 70% | Estimated maximum level in human milk (concentration calculated with the last calibration point, in parentheses) ([1]; sample A-1a (no odour)): < 1.37 µg/kg | Absolute concentration in human milk ([1]; sample A-1a (no odour), oral 100 mg 1,8-cineole, values given with (<x) lie beyond calibration range, approximation): 0.65 µg/kg | Absolute concentration in human milk ([1]; sample A-1b (odour yes), oral 100 mg 1,8-cineole, values given with (<x) are approximations): 138.10 µg/kg | Absolute concentration in human milk ([1]; sample B-1 (odour yes), oral 100 mg 1,8-cineole, values given with (<x) are approximations): 176.30 µg/kg | Absolute concentration in human milk ([1]; sample B-2a (no odour), oral 100 mg 1,8-cineole): 0.61 µg/kg | Absolute concentration in human milk ([1]; sample B-2b (odour yes), oral 100 mg 1,8-cineole, values given with (<x) are approximations): 113.55 µg/kg | Absolute concentration in human milk ([1]; sample B-2c (no odour), oral 100 mg 1,8-cineole): 29.25 µg/kg | Absolute concentration in human milk ([1]; sample C (no odour; very weak odour not caused by 1,8-cineole), oral 100 mg 1,8-cineole, values given with (<x) are approximations): 7.68 µg/kg | Absolute concentration in human milk ([1]; sample D-1 (no odour), oral 100 mg 1,8-cineole, values given with (<x) are approximations): 15.08 µg/kg | Absolute concentration in human milk ([1]; sample D-2 (odour yes), oral 100 mg 1,8-cineole, values given with (<x) are approximations): 135.98 µg/kg | Absolute concentration in human milk ([1]; sample E-1 (no odour), oral 100 mg 1,8-cineole, values given with (<x) are approximations): 2.02 µg/kg | Absolute concentration in human milk ([1]; sample E-2 (odour yes), oral 100 mg 1,8-cineole, values given with (<x) are approximations): 233.31 µg/kg | Absolute concentration in human milk ([1]; sample F (no odour), parent ingested two capsules, values given with (<x) are approximations): 3.16 µg/kg | Absolute concentration in human milk ([1]; sample G (odour yes), oral 100 mg 1,8-cineole, values given with (<x) are approximations): 98.83 µg/kg | Absolute concentration in human milk ([1]; sample H (odour yes), oral 100 mg 1,8-cineole, values given with (<x) are approximations): 206.09 µg/kg | Concentration range in human milk samples ([1]; seven positive samples (eucalyptus-like odour), Figure 2): 99 to 233 µg/kg | Concentration in plasma [2]: 14.62 ng/mL
